# Experimental data published in patent US20020137733A1, “Macrocyclic anti-viral compounds” (priority 2000, published 2002).
# Where two headings read alike, the source gives them in different places.
# Experiments:
# HSV-1 KOS = experiment: Anti-HSV CPE assay, HSV-1 KOS; format: cell-based, herpes simplex virus type 1
# Method: (§1) Human embryonic lung fibroblast (HEL) cells and Vero cells were propagated in minimal essential medium (MEM) supplemented with 10% fetal calf serum, L-glutamine, and bicarbonate. A CPE assay was used, confluent cultures of HEL or Vero cells grown in 96-well microtiter plates were inoculated with 100 times the 50% cell culture infective dose of the different HSV strains (HSV-1 KOS; HSV-1 Tk−, which is deficient for thymidine kinase; and HSV-2 G). Compounds were added after a 2 hours virus adsorption period. After 2 to 3 days incubation at 37 C. in 5% CO2 atmosphere, cells were fixed with ethanol and stained with 2.5% Giemsa solution. Virus-induced cytopathic effect (CPE) was then recorded microscopically. […] IC50 values were estimated from graphic plots of the number of plaques (percentage of control) or percentage of cytopathocity as a function of the concentration of the test compounds. Control compounds ganciclovir (GCV) and cidofovir ([(S)-1-(3-hydroxy-2-phosphonylmethoxypropyl)cytosine], HPMPC) were run in parallel.
# HCMV Davis [1] = experiment: Anti-HCMV CPE assay; format: cell-based, cytomegalovirus; settings: HEL cells, 100 PFU/well; for EC50: Human betaherpesvirus 5, HEL, read-out: ANTI-HCMV ACTIVITY EC50 HCMV-Davis CPE 100/well (96 well)
# Method: (§2) Method 4. Anti-HCMV Assay
# (§3) Human embryonic lung fibroblast cells (HEL) were grown in 96-well plates at the confluent stage and then were infected with reference strains of HCMV Davis at 8, 20, 38 plaque-forming units (PFU)/well for plaque assay or at 100 PFU/well for cytopathic effect (CPE) assay. After a 2 hours incubation, residual virus was removed and the infected cells were further incubated with Eagle's MEM culture medium supplemented with 2% inactivated FCS (fetal calf serum), 1% L-glutamine and 0.3% sodium bicarbonate containing dilution of the test compounds (in duplicate). After 7 days incubation at 37 C. in 5% CO2 atmosphere, cells were fixed with ethanol and stained with 2.5% Giemsa solution. Virus plaque formation or viral cytopathic effect were monitored microscopically. […] IC50 values were estimated from graphic plots of the number of plaques (percentage of control) or percentage of cytopathocity as a function of the concentration of the test compounds. Control compounds ganciclovir (GCV) and cidofovir ([(S)-1-(3-hydroxy-2-phosphonylmethoxypropyl)cytosine], HPMPC) were run in parallel.
# Vero cells = experiment: Cytotoxicity, alteration of cell morphology (MTC), Vero cells; format: cell-based; settings: Table 1
# Excerpt: (§4) Method 10. Cytotoxicity Measurements Based on Alteration of Cell Morphology
# (§5) Minimum toxic concentration which is expressed as MTC, is the minimum concentration of compound required to cause microscopically detectable alteration in normal cell morphology.
# (§6) MTC: Minimal toxic concentration or minimal concentration required to alter normal cell morphology (Visual examination)
# HSV-2 G = experiment: Anti-HSV CPE assay, HSV-2 G; format: cell-based, herpes simplex virus type 2
# Method: as §1
# [2] = Cytotoxicity, inhibition of cell growth (CC50), HEL cells; format: cell-based; settings: human, Coulter counter
# Method: (§7) Method 9. Cytotoxicity Measurements Based on the Inhibition of Cell Growth
# (§8) Cells were seeded at a rate of 5×10^3 cells/well in 96-well plates and allowed to proliferate 24 hours. Different concentrations of the test compounds were then added (in duplicates), and after 3 days of incubation at 37 C. in 5% CO2 atmosphere, the cell number was determined with a coulter counter.
# HSV-1 Tk− = experiment: Anti-HSV CPE assay, HSV-1 Tk- (thymidine kinase deficient); format: cell-based, herpes simplex virus type 1
# Method: as §1
# HEL cells = experiment: Cytotoxicity, alteration of cell morphology (MTC), HEL cells; settings: for CYTOTOXICITY MTC HEL: Table 1 (anti-HSV study)
# Excerpt: as §4, §5, §6
# HCMV Davis [3] = experiment: Anti-HCMV plaque assay; format: cell-based, cytomegalovirus; settings: for EC50: Human betaherpesvirus 5, HEL
# Method: as §2, §3
# VZV OKA strain = experiment: microbe, parasite or virus in culture; format: cell-based, varicella zoster virus; settings: Human alphaherpesvirus 3, HEL, read-out: ANTI-VZV ACTIVITY EC50 Plaque assay VZV Tk+ OKA strain
# Method: (§9) Human embryonic lung fibroblast (HEL) cells were grown in 96-well plates at the confluent stage and then were infected with reference strains VZV expressing viral thymidine kinase (YS and Oka) or lacking the viral thymidine kinase (07-1 and YS-R) at 20 plaque-forming units (PFU) for plaque assay. After a 2 hours incubation, residual virus was removed and the infected cells were further incubated with Eagle's MEM culture medium supplemented with 2% inactivated FCS (fetal calf serum), 1% L-glutamine and 0.3% sodium bicarbonate containing dilution of the test compounds (in duplicate) After 5 days incubation at 37 C. in 5% CO2 atmosphere, cells were fixed with ethanol and stained with 2.5% Giemsa solution. Virus plaque formation was monitored microscopically. […] IC50 values were estimated from graphic plots of the number of plaques (percentage of control) as a function of the concentration of the test compounds.
# VZV 07/1 strain = experiment: microbe, parasite or virus in culture; format: cell-based, varicella zoster virus; settings: Human alphaherpesvirus 3, HEL, read-out: ANTI-VZV ACTIVITY EC50 Plaque assay VZV Tk− 07/1 strain
# Method: as §9
# VZV YS/R strain = experiment: microbe, parasite or virus in culture; format: cell-based, varicella zoster virus; settings: Human alphaherpesvirus 3, HEL, read-out: ANTI-VZV ACTIVITY EC50 Plaque assay VZV Tk− YS/R strain
# Method: as §9
# VZV YS strain = experiment: Anti-VZV plaque assay, YS strain (Tk+); format: cell-based, varicella zoster virus; settings: read-out: ANTI-VZV ACTIVITY EC50 Plaque assay VZV Tk+ YS strain
# Method: as §9
# [4] = Cytotoxicity, inhibition of cell growth (CC50), P3HR cells; format: cell-based; settings: human, Coulter counter
# Method: as §7, §8
# EBV = experiment: Anti-EBV assay, EBV-specific DNA/DNA hybridization in P3HR-1 cells; format: cell-based, Epstein-Barr virus; settings: read-out: ANTI-EBV ACTIVITY EC50 DNA hybridiation assay
# Method: To determine the effects of the compounds on EBV replication, exponentially growing P3HR-1 cells were treated for 14 days with various concentrations of the compounds. The cells were then harvested, and the genome copy numbers were determined using EBV-specific DNA/DNA hybridization technique. […] Control compound cidofovir ([(S)-1-(3-hydroxy-2-phosphonylmethoxypropyl)cytosine], HPMPC) was run in parallel.
# in vitro = format: cell-based; settings: human
# Excerpt: Method 11. Cytotoxicity Measurements Based on Reduction of Total Cellular DNA Content Expressed as CC50*
# [5] = Human alphaherpesvirus 1, HEL cells, read-out: ANTI-HSV ACTIVITY EC50 CPE assay HSV-1-KOS HEL
# [6] = Human alphaherpesvirus 1, Vero cells, read-out: ANTI-HSV ACTIVITY EC50 CPE assay HSV-1-KOS Vero
# [7] = Human alphaherpesvirus 2, Vero, Vero cells, read-out: ANTI-HSV ACTIVITY EC50 CPE assay HSV-2-G Vero
# [8] = Human alphaherpesvirus 1, HEL, read-out: ANTI-HSV ACTIVITY EC50 CPE assay HSV-1Tk- HEL, HEL cells
# [9] = Human alphaherpesvirus 1, Vero, read-out: ANTI-HSV ACTIVITY EC50 CPE assay HSV-1Tk- Vero, Vero cells
# [10] = HEL cells, 8 PFU/well, read-out: ANTI-HCMV ACTIVITY EC50 HCMV-Davis Plaque assay 8/well
# [11] = HEL cells, 38 PFU/well, read-out: ANTI-HCMV ACTIVITY EC50 HCMV-Davis Plaque assay 38/well
Compound,EC50 (HSV-1 KOS; [5]),EC50 (HSV-1 KOS; [6]),EC50 (HCMV Davis [1]),CYTOTOXICITY MTC Vero (Vero cells),EC50 (HSV-2 G; [7]),CC50 at 3 days [2],EC50 (HSV-1 Tk−; [8]),EC50 (HSV-1 Tk−; [9]),CYTOTOXICITY MTC HEL (HEL cells),CYTOTOXICITY HEL cells MTC (HEL cells; Table 4 (anti-HCMV study)),EC50 (HCMV Davis [3]; [10]),EC50 (HCMV Davis [3]; [11]),EC50 (VZV OKA strain),EC50 (VZV 07/1 strain),EC50 (VZV YS/R strain),CYTOTOXICITY HEL cells MTC (HEL cells; Table 3 (anti-VZV study)),"EC50 (VZV YS strain; Human alphaherpesvirus 3, HEL)",CC50 at 3 days [4],CC50 (in vitro),other results
"Nc1nc(O)c2ncn(COC(CO)CO)c2n1 [GCV, 9-[(1,3-dihyroxy-2-propoxy)methyl]guanine]",0.01 µg/mL,2.6 µg/mL,0.98 µg/mL,>100 µg/mL,1.2 µg/mL,23 µg/mL,12.5 µg/mL,> 100 µg/mL,>100 µg/mL,>100 ug/m/,0.94 µg/mL,> 100 µg/mL,–,–,–,–,–,–,–,"ANTI-HCMV ACTIVITY EC50 HCMV-Davis CPE 100/well (96 well) (HCMV Davis [1]): 0.78 µg/mL; ANTI-HSV ACTIVITY EC50 CPE assay HSV-1Tk- HEL (HSV-1 Tk−; HEL cells): 17.4 µg/mL; ANTI-HCMV ACTIVITY EC50 HCMV-Davis Plaque assay 8/well (HCMV Davis [3]; HEL cells, 8 PFU/well): 0.86 µg/mL"
"O=c1[nH]c(=O)n([C@H]2C[C@H](O)[C@@H](CO)O2)cc1/C=C/Br [BVDU, (E)-5-(2-bromovinyl)-2′-deoxyuridine]",–,–,–,–,–,–,–,–,–,–,–,–,0.0013 µg/mL,4 µg/mL,39 µg/mL,>50 µg/mL,0.0013 µg/mL,–,–,–
"Nc1ccn(C[C@@H](CO)OCP(=O)(O)O)c(=O)n1 [HPMPC, (S)-1-(3-hydroxy-2-phosphonylmethoxypropyl)cytosine]",0.098 µg/mL,6.7 µg/mL,0.1 µg/mL,>100 µg/mL,1.3 µg/mL,11 µg/mL,0.012 µg/mL,2.4 µg/mL,>100 µg/mL,>100 ug/m/,0.15 µg/mL,1.9 µg/mL,–,–,–,–,–,30 µg/mL,> 25 µg/mL,"EC50 (EBV; human gammaherpesvirus 4, 336 h, P3HR-1 cells, treated 14 days): < 25 µg/mL; EC50 (HSV-2 G; Human alphaherpesvirus 2, HEL, HEL cells, read-out: ANTI-HSV ACTIVITY EC50 CPE assay HSV-2-G HEL): 0.01 µg/mL; EC50 (HCMV Davis [3]; HEL cells, 20 PFU/well, read-out: ANTI-HCMV ACTIVITY EC50 HCMV-Davis Plaque assay 20/well): 0.14 µg/mL"
"Nc1nc2c(ncn2COCCO)c(=O)[nH]1 [ACV, acyclovir]",–,2.4 µg/mL,–,>10 µg/mL,1.3 µg/mL,–,–,33 µg/mL,–,–,–,–,–,–,–,–,–,–,–,"EC50 (VZV YS strain; Human alphaherpesvirus 3, HEL cells, 20 PFU): 0.69 µg/mL"
O=C1NCc2ccccc2OCC/C=C/c2cncc3ccc1nc23 [Compound #1],–,–,–,25 µg/mL,–,0.1 µg/mL,0.062 µg/mL,1.1 µg/mL,6 µg/mL,–,–,–,0.06 µg/mL,0.06 µg/mL,0.05 µg/mL,>2 µg/mL,0.05 µg/mL,0.7 µg/mL,2.6 µg/mL,"EC50 (HSV-1 KOS; Human alphaherpesvirus 1, HEL, read-out: ANTI-HSV ACTIVITY EC50 CPE assay HSV-1-KOS HEL): 0.098 µg/mL; EC50 (HSV-1 KOS; Human alphaherpesvirus 1, Vero, read-out: ANTI-HSV ACTIVITY EC50 CPE assay HSV-1-KOS Vero): 0.52 µg/mL; EC50 (EBV; human gammaherpesvirus 4, P3HR-1, 336 h): < 0.2 µg/mL; EC50 (HSV-2 G; Human alphaherpesvirus 2, HEL, read-out: ANTI-HSV ACTIVITY EC50 CPE assay HSV-2-G HEL): 0.138 µg/mL; EC50 (HSV-2 G; Human alphaherpesvirus 2, Vero, read-out: ANTI-HSV ACTIVITY EC50 CPE assay HSV-2-G Vero): 0.009 µg/mL; EC50 (HCMV Davis [3]; read-out: ANTI-HCMV ACTIVITY EC50 HCMV-Davis Plaque assay 8/well): < 0.0015 µg/mL; EC50 (HCMV Davis [3]; read-out: ANTI-HCMV ACTIVITY EC50 HCMV-Davis Plaque assay 20/well): < 0.0015 µg/mL; EC50 (HCMV Davis [3]; read-out: ANTI-HCMV ACTIVITY EC50 HCMV-Davis Plaque assay 38/well): 0.003 µg/mL"
